# Molecular target: human RIP1 kinase domain (2-375) (Homo sapiens (Human), UniProt Q13546)
# Assay: RIP1 kinase inhibition assay (Transcreener ADP biochemical enzyme assay)
# Settings: Ki app (Morrison tight-binding fit); 50 nM enzyme, 50 uM ATP, 2 hours incubation, fluorescence polarization
# Procedure: RIP1 Kinase Inhibition Assays (Biochemical Assay):
# The compounds of the present invention were tested for their capacity to inhibit RIP K activity as described below.
# Enzyme assay: The ability of the receptor interacting protein kinase (RIPK1) to catalyze the hydrolysis of adenosine-5′-triphosphate (ATP) is monitored using the Transcreener ADP (adenosine-5′-diphosphate) assay (BellBrook Labs). Purified human RIP1 kinase domain (2-375) (50 nM) derived from a baculovirus-infected insect cell expression system is incubated with test compounds for 2 hours in 50 mM Hepes buffer (pH 7.5) containing 30 mM MgCl2, 1 mM dithiothreitol, 50 uM ATP, 0.002% Brij-35, and 0.5% dimethyl sulfoxide (DMSO). Reactions are quenched by the addition of 1× Bell Brooks Stop buffer B (20 mM Hepes (ph7.5), 40 mM ethylenediaminetetraacetic acid and 0.02% Brij-35) containing an additional 12 mM EDTA and 55 ug/mL ADP2 antibody and 4 nM ADP-AlexaFluor® 633 tracer. The tracer bound to the antibody is displaced by the ADP generated during the RIP1K reaction, which causes a decrease in fluorescence polarization that is measured by laser excitation at 633 nm with a FP microplate reader M1000. Fractional activity was plotted against test article concentration. Using Genedata Screener software (Genedata; Basel, Switzerland), the data were fit to the tight-binding apparent inhibition constant (Ki^app) Morrison equation [Williams, J. W. and Morrison, J. F. (1979) The kinetics of reversible tight-binding inhibition. Methods Enzymol 63: 437-67]. The following equation was used to calculate fractional activity and Ki^app:
# [formula] where [E]T and [I]T are the total concentrations of active enzyme and test article, respectively.
# Sequence of human RIP1 kinase domain (2-375) (Q13546 2-375): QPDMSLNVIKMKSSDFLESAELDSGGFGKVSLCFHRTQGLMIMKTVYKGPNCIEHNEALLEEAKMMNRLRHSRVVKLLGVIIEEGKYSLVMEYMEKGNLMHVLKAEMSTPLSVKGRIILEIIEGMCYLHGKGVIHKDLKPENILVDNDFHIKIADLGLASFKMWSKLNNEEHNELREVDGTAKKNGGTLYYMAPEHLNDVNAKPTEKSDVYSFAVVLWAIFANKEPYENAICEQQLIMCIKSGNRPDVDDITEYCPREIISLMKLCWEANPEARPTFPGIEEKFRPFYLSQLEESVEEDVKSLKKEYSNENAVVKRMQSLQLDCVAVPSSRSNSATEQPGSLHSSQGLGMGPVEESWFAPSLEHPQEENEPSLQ
row,Ki [nM],SMILES
1,57,"O=C(c1nc2n(n1)C(c1ccccc1)CC2(F)F)N1CC(F)(F)C1 (racemic) [Example 1, (3,3-difluoroazetidin-1-yl)-(7,7-difluoro-5-phenyl-5,6-dihydropyrrolo[1,2-b][1,2,4]triazol-2-yl)methanone]"
2,205,"O=C(c1nc2n(n1)CCC2c1ccccc1)N1CC(F)(F)C1 (racemic) [Example 4, (3,3-difluoroazetidin-1-yl)-(7-phenyl-6,7-dihydro-5H-pyrrolo[1,2-b][1,2,4]triazol-2-yl)methanone]"
3,768,"O=C(c1nc2n(n1)CCOC2c1ccccc1)N1CC(F)(F)C1 (racemic) [Example 5, (3,3-difluoroazetidin-1-yl)-(8-phenyl-6,8-dihydro-5H-[1,2,4]triazolo[5,1-c][1,4]oxazin-2-yl)methanone]"
4,722,"O=C(c1nc2n(n1)CCOC2c1ccccc1F)N1CC(F)(F)C1 (racemic) [Example 6, (3,3-difluoroazetidin-1-yl)-[8-(2-fluorophenyl)-6,8-dihydro-5H-[1,2,4]triazolo[5,1-c][1,4]oxazin-2-yl]methanone]"
5,8690,"CC(F)(F)C1CCc2nc(C(=O)N3CC(F)(F)C3)nn21 (racemic) [Example 8, (3,3-difluoroazetidin-1-yl)-[5-(1,1-difluoroethyl)-6,7-dihydro-5H-pyrrolo[1,2-b][1,2,4]triazol-2-yl]methanone]"
6,1140,"O=C(c1cc2n(n1)CCOC2c1ccccc1)N1CC(F)(F)C1 (racemic) [Example 13, (3,3-difluoroazetidin-1-yl)-(4-phenyl-6,7-dihydro-4H-pyrazolo[5,1-c][1,4]oxazin-2-yl)methanone]"
7,105,"O=C(c1nc2n(n1)C(c1ccccc1)CC2)N1CC(F)(F)C1 (racemic) [Example 16, (3,3-difluoroazetidin-1-yl)-(5-phenyl-6,7-dihydro-H-pyrrolo[1,2-b][1,2,4]triazol-2-yl)methanone]"
8,1370,"COC1CN(C(=O)c2nc3n(n2)C(c2ccccc2)CC3)C1 (racemic) [Example 17, (3-methoxyazetidin-1-yl)-(5-phenyl-6,7-dihydro-5H-pyrrolo[1,2-b][1,2,4]triazol-2-yl)methanone]"
9,343,"O=C(c1nc2n(n1)C(c1ccccc1)CC2)N1CC(F)C1 (racemic) [Example 18, (3-fluoroazetidin-1-yl)-(5-phenyl-6,7-dihydro-5H-pyrrolo[1,2-b][1,2,4]triazol-2-yl)methanone]"
10,465,"CC1CN(C(=O)c2nc3n(n2)C(c2ccccc2)CC3)C1 (racemic) [Example 19, (3-methylazetidin-1-yl)-(5-phenyl-6,7-dihydro-5H-pyrrolo[1,2-b][1,2,4]triazol-2-yl)methanone]"
11,271,"CC1(F)CN(C(=O)c2nc3n(n2)C(c2ccccc2)CC3)C1 (racemic) [Example 20, (3-fluoro-3-methyl-azetidin-1-yl)-(5-phenyl-6,7-dihydro-5H-pyrrolo[1,2-b][1,2,4]triazol-2-yl)methanone]"
12,1360,"CCC1CN(C(=O)c2nc3n(n2)C(c2ccccc2)CC3)C1 (racemic) [Example 21, (3-ethylazetidin-1-yl)-(5-phenyl-6,7-dihydro-5H-pyrrolo[1,2-b][1,2,4]triazol-2-yl)methanone]"
13,511,"O=C(c1nc2n(n1)C(c1ccccc1F)CC2)N1CCC1 (racemic) [Example 22, Azetidin-1-yl-[5-(2-fluorophenyl)-6,7-dihydro-5H-pyrrolo[1,2-b][1,2,4]triazol-2-yl]methanone]"
14,44,"O=C(c1nc2n(n1)C(c1ccccc1F)CC2)N1CC(F)(F)C1 (racemic) [Example 23, (3,3-difluroroazetidin-1-yl)-[5-(2-fluorophenyl)-6,7-dihydro-5H-pyrrolo[1,2-b][1,2,4]triazol-2-yl]methanone]"
15,194,"O=C(c1nc2n(n1)C(c1ccccc1F)CC2)N1CC(F)C1 (racemic) [Example 24, (3-fluoroazetidin-1-yl)-[5-(2-fluorophenyl)-6,7-dihydro-5H-pyrrolo[1,2-b][1,2,4]triazol-2-yl]methanone]"
16,3600,"CNC(=O)c1nc2n(n1)C(c1ccccc1)CC2 (racemic) [Example 25, N-methyl-5-phenyl-6,7-dihydro-5H-pyrrolo[1,2-b][1,2,4]triazole-2-carboxamide]"
17,530,"O=C(c1nc2n(n1)C(c1ccccc1)CC2)N1CCC1 (racemic) [Example 26, azetidin-1-yl-(5-phenyl-6,7-dihydro-5H-pyrrolo[1,2-b][1.2.4]triazol-2-yl)methanone]"
18,2200,"CN(C)C(=O)c1nc2n(n1)C(c1ccccc1)CC2 (racemic) [Example 27, N,N-dimethyl-5-phenyl-6,7-dihydro-5H-pyrrolo[1,2-b][1,2,4]triazole-2-carboxamide]"

row,Ki [nM],SMILES
1,8900,"O=C(c1nc2n(n1)C(c1ccccc1)CC2)N1CC2CC1C2 (racemic) [Example 28, 2-azabicyclo[2.1.1]hexan-2-yl-(5-phenyl-6,7-dihydro-5H-pyrrolo[1,2-b][1,2,4]triazol-2-yl)methanone]"
2,5400,"O=C(c1nc2n(n1)C(c1ccccc1)CC2)N1CCCCC1 (racemic) [Example 29, (5-phenyl-6,7-dihydro-5H-pyrrolo[1,2-b][1,2,4]triazol-2-yl)-(1-piperidyl)methanone]"
3,6400,"O=C(c1nc2n(n1)C(c1ccccc1)CC2)N1CCCC1 (racemic) [Example 30, (5-phenyl-6,7-dihydro-5H-pyrrolo[1,2-b][1,2,4]triazol-2-yl)-pyrrolidin-1-yl-methanone]"
4,1400,CN(C)C(=O)c1nc2n(n1)C(c1ccccc1F)CC2 (racemic) [Example 33]
5,3400,O=C(c1nc2n(n1)C(c1ccccc1F)CC2)N1CCCC1 (racemic) [Example 34]
6,1300,O=C(c1nc2n(n1)[C@H](c1ccccc1)C[C@H]2F)N1CC(F)C1 (racemic) [Example 35]
7,1400,"O=C(c1cc2n(n1)CCOC2c1ccccc1F)N1CC(F)(F)C1 (racemic) [Example 37, (3,3-difluoroazetidin-1-yl)-[4-(2-fluorophenyl)-6,7-dihydro-4H-pyrazolo[5,1-c][1,4]oxazin-2-yl]methanone]"
8,32,O=C(c1nc2n(n1)[C@@H](c1ccccc1)C[C@H]2F)N1CC(F)C1 (racemic) [Example 39]
9,920,"CCC(F)(F)C1CCc2nc(C(=O)N3CC(F)(F)C3)nn21 (racemic) [Example 40, (3,3-difluoroazetidin-1-yl)-[5-(1,1-difluoropropyl)-6,7-dihydro-5H-pyrrolo[1,2-b][1,2,4]triazol-2-yl]methanone]"
10,8000,"CN(C)C(=O)c1nc2n(n1)CCOC2c1ccccc1 (racemic) [Example 41, N,N-dimethyl-8-phenyl-6,8-dihydro-5H-[1,2,4]triazolo[5,1-c][1,4]oxazine-2-carboxamide]"
11,5000,"CN(C)C(=O)c1nc2n(n1)CCOC2c1ccccc1F (racemic) [Example 43, 8-(2-fluorophenyl)-N,N-dimethyl-6,8-dihydro-5H-[1,2,4]triazolo[5,1-c][1,4]oxazine-2-carboxamide]"
12,4800,"CCN(CC)C(=O)c1nc2n(n1)CCOC2c1ccccc1F (racemic) [Example 44, N,N-diethyl-8-(2-fluorophenyl)-6,8-dihydro-5H-[1,2,4]triazolo[5,1-c][1,4]oxazine-2-carboxamide]"
13,2300,"O=C(c1nc2n(n1)CCOC2c1ccccc1F)N1CC(F)C1 (racemic) [Example 45, (3-fluoroazetidin-1-yl)-[8-(2-fluorophenyl)-6,8-dihydro-5H-[1,2,4]triazolo[5,1-c][1,4]oxazin-2-yl]methanone]"
14,917,O=C(c1nc2n(n1)C(c1ccccc1)C1CC21)N1CC(F)C1 (racemic) [Example 46]
15,195,O=C(c1nc2n(n1)C(c1ccccc1)C1CC21)N1CC(F)(F)C1 (racemic) [Example 47]
16,5000,"O=C(c1nc2n(n1)[C@H](C(F)(F)F)CC2)N1CC(F)(F)C1 (racemic) [Example 49, (3,3-difluoroazetidin-1-yl)-[rac-(5S)-5-(trifluoromethyl)-6,7-dihydro-5H-pyrrolo[1,2-b][1,2,4]triazol-2-yl]methanone]"
17,1600,"O=C(c1nc2n(n1)[C@H](c1ccccc1)C[C@@H]2F)N1CC(C(F)(F)F)C1 (racemic) [Example 50, [rac-(5S,7S)-7-fluoro-5-phenyl-6,7-dihydro-5H-pyrrolo[1,2-b][1,2,4]triazol-2-yl]-[3-(trifluoromethyl)azetidin-1-yl]methanone]"
18,100,"O=C(c1nc2n(n1)[C@H](c1ccccc1)C[C@@H]2F)N1CC(C(F)F)C1 (racemic) [Example 51, [3-(difluoromethyl)azetidin-1-yl]-[rac-(5S, 7S)-7-fluoro-5-phenyl-6,7-dihydro-5H-pyrrolo[1,2-b][1,2,4]triazol-2-yl]methanone]"

row,SMILES,Ki [nM]
1,"O=C(c1nc2n(n1)[C@@H](c1ccccc1)C[C@@H]2F)N1CC(F)(F)C1 (racemic) [Example 2, (3,3-difluoroazetidin-1-yl)-[rac-(5R,7S)-7-fluoro-5-phenyl-6,7-dihydro-5H-pyrrolo[1,2-b][1,2,4]triazol-2-yl]methanone]",478
